These results are taken from US20260199564A1, “METHOD OF PREVENTING BLOOD COAGULATION AND DRUG-ELUTING IMPLANT FOR PERCUTANEOUS CORONARY INTERVENTION” (priority 2023, published 2026).

The IC50 is the concentration that inhibits the measured activity by half. The low end stands for inhibition by little substance, the high end for a need for much substance.

A value given as a limit tells only on which side of the number the result lay.

One data set addresses T1, CYP2C9 (Homo sapiens, UniProt P11712).
T1 construct: with pooled human liver microsomes; from tissue; host or cells: pooled human liver microsomes
The data set can be described thus: Cytochrome P450 inhibition in human liver microsomes using LC-MS/MS, CYP2C9. Type of data set: in vitro ADME. As for the experimental part:
(§1) In IC50 shift experiments, CK (0.2 μL prepared in DMSO) was pre-incubated for 30 min at 37° C., at 8 different concentrations, with pooled human liver microsomes (0.1-1 mg/mL, depending on which enzyme was assessed) in the absence or presence of 1 mM NADPH in 100 μL of potassium phosphate buffer (100 mM, pH 7.4) and MgCl2 (2.5 mM). After the pre-incubation, a substrate mixture containing a probe substrate in 100 μL of potassium phosphate buffer (100 mM, pH 7.4), MgCl2 (2.5 mM), and NADPH (1 mM) was added for measurement of the corresponding P450 activities. Incubations were terminated by addition of 200 μL methanol. Samples were then extracted and centrifuged and the supernatant was subjected to validated LC-MS/MS analysis.
A general note: Liver microsomes are vesicles of endoplasmic reticulum, rich in cytochrome P450 enzymes.

In the next data set the test system is TNF-α. The data set can be described thus: LPS-induced TNF-α expression in HUVECs. The conditions noted are these: 1, 3, 10 μM for 1 h prior to LPS (1 μg/ml) stimulation for 24 h. Type of data set: cell-based, human. How it is done:
(§2) HUVECs were treated for 1 h with ginsenoside CK (1 μM, 3 μM, and 10 μM) prior to LPS (1 μg/ml) stimulation for 24 h (A) IL-6 (B) TNF-αexpression. Values are means±SEM of 3 independent experiments. Statistical significance assessed by one-way ANOVA followed by Scheffe post-hoc test for multiple comparisons (***P<0.01, *P<0.05 vs LPS).
(§3) Treatment of HUVECs with LPS (1 μg/ml) increased IL-6 and TNF-αexpression. To determine whether LPS-induced IL-6 and TNF-αexpression was affected by ginsenoside CK, HUVECs were treated for 1 h with ginsenoside CK (1 μM, 3 μM, and 10 μM) prior to LPS (1 μg/ml) stimulation for 24 h.

The test system of the next data set is VCAM-1. The data set can be described thus: LPS-induced VCAM-1 mRNA expression in HUVECs. The format is cell-based, human. Conditions: 1, 3, 10 μM for 1 h prior to LPS (1 μg/ml) stimulation for 24 h. As for the experimental part:
(§4) HUVECs were treated for 1 h with ginsenoside CK (1 μM, 3 μM, and 10 μM) prior to LPS (1 μg/ml) stimulation for 24 h. (A) ICAM-1 (B) VCAM-1 mRNA expression. Values are means±SEM of 3 independent experiments. Statistical significance assessed by one-way ANOVA followed by Scheffe post-hoc test for multiple comparisons (***P<0.01, *P<0.05 vs LPS).
(§5) Treatment of HUVECs with LPS (1 μg/ml) increased ICAM-1 and VCAM-1 mRNA expression. Twenty-four hours after LPS treatment, maximal expression of ICAM-1 and VCAM-1 was attained. To determine whether LPS-stimulated ICAM-1 and VCAM-1 mRNA expression is affected by ginsenoside CK, HUVECs were treated for 1 h with ginsenoside CK (1 μM, 3 μM, and 10 μM) prior to LPS (1 μg/ml) stimulation for 24 h.

For the next data set, the system named is HUVECs. The data set can be described thus: HUVEC cell viability by CCK-8 assay. The format is cell-based, human. The conditions noted are these: 1 μM, 3 μM, and 10 μM alone for 24 h. Background: Tetrazolium dyes change colour on reduction, which living cells bring about.
A further data set addresses T2, CYP3A4 (Homo sapiens, UniProt P08684).
T2 construct: with pooled human liver microsomes; from tissue; host or cells: pooled human liver microsomes
The data set can be described thus: Cytochrome P450 inhibition in human liver microsomes using LC-MS/MS, CYP3A4. The format is in vitro ADME. The conditions noted are these: for IC50 shift (fold difference): ratio of IC50 with −NADPH to IC50 with +NADPH in the 30 min pre-incubation; for IC50: pooled human liver microsomes. How it is done: as §1

The next data set has as its target T3, CYP2D6 (Homo sapiens, UniProt P10635).
T3 construct: with pooled human liver microsomes; from tissue; host or cells: pooled human liver microsomes
Briefly: Cytochrome P450 inhibition in human liver microsomes using LC-MS/MS, CYP2D6. The format is in vitro ADME. How it is done:
as §1

A short description of data set [1]: Releasing kinetics of ginsenoside CK from three-layer coated stent (CK DES), FIG. 2. The format is physicochemical.
The next data set has as its system Human platelets. Briefly: Platelet aggregation test (anticoagulant test), collagen-treated platelet-rich plasma. The format is cell-based. Conditions: PRP, 5 μg/ml collagen, CK 0-80 μM. As for the experimental part:
• a. A 20 mM CK stock solution is prepared with DMSO and is diluted with 1×PBS to the different working concentrations (0, 62.5, 125, 250, 500, 1000, and 2000 μM) before experiments.
The donator should rest and fast for 12 h and not smoke before blood collection. Medication such as antihistamines, antibiotics, Aspirin, and anti-inflammatory drugs are not allowed to take 10-14 days before tests due to the potential of affecting platelet function.
To ensure the absence of coagulation, the blood sample should be fully mixed with the anticoagulant and stored at 24-27° C. It is recommended to conduct the platelet aggregation test within 30-150 min after blood sample collection.
Slightly invert the blood collection tubes 3-4 times to resuspend the blood cells. Centrifuge the samples at 170×g for 7 min and transfer the supernatants to the new tubes. The samples should be used within 5-10 min after separation; otherwise, the samples should be stored at 4° C. to avoid agglutination. […]
To test the effect of CK on the function of platelet aggregation, different concentrations of CK (0, 2.5, 5, 10, 20, 40, and 80 μM) are added to 0.25 ml PRP. […] OD value is measured with a spectrometer at 650 nm, and the value is converted into an aggregate percentage.
The aggregation percentage of platelet is calculated with the following formula: […]

The test system of the next data set is IL-6. Briefly: LPS-induced IL-6 expression in HUVECs. The conditions noted are these: 1, 3, 10 μM for 1 h prior to LPS (1 μg/ml) stimulation for 24 h. Type of data set: cell-based, human. As for the experimental part: as §2, §3
A further data set deals with ICAM-1. Briefly: LPS-induced ICAM-1 mRNA expression in HUVECs. Conditions: 1, 3, 10 μM for 1 h prior to LPS (1 μg/ml) stimulation for 24 h. The format is cell-based, human. How it is done: as §4, §5
[2] abbreviates: 50 μM, 30 min pre-incubation in the presence or absence of NADPH.

T2 sequence (P08684 whole entry): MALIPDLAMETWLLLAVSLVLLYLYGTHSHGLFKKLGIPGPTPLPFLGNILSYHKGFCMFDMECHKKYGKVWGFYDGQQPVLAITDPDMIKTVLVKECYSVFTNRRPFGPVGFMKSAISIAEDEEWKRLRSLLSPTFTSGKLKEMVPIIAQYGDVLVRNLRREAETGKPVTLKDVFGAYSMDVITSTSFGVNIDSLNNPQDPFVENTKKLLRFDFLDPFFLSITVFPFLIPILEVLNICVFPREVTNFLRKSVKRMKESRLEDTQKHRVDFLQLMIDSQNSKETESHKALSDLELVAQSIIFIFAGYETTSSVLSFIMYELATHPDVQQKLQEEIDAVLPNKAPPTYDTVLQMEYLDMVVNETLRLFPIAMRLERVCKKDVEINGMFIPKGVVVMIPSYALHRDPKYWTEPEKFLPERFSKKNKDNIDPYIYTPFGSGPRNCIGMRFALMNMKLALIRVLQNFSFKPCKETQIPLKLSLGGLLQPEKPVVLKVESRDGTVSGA
T3 sequence (P10635 whole entry): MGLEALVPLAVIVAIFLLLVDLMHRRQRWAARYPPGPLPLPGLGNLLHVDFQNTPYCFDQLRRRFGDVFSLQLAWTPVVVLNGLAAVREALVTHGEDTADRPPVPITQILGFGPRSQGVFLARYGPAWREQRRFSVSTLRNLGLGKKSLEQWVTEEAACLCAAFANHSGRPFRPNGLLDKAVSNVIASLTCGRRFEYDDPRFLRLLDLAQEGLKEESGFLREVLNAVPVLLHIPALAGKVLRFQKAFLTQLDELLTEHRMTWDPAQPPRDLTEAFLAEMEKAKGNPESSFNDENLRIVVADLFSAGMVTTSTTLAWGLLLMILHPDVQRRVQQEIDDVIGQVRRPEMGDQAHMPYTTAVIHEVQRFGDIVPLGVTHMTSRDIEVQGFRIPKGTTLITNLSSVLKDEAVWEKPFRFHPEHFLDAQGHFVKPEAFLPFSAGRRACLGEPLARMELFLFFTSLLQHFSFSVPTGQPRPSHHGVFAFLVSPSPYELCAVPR
T1 sequence (P11712 whole entry): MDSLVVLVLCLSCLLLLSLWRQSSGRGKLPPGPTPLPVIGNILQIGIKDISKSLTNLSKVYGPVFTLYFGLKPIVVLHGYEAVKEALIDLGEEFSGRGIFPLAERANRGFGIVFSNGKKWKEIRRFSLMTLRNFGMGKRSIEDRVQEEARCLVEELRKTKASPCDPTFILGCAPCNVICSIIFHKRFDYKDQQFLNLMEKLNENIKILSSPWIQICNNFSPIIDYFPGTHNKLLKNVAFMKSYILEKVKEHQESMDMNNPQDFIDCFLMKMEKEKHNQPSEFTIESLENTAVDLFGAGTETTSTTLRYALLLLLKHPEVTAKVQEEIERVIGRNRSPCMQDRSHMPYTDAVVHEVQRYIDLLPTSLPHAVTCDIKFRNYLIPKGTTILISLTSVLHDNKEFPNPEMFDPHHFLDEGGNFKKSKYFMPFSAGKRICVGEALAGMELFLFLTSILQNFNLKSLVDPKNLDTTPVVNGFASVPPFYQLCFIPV

Regarding `CC(C)=CCC[C@](C)(O[C@@H]1O[C@H](CO)[C@@H](O)[C@H](O)[C@H]1O)[C@H]1CC[C@]2(C)[C@@H]1[C@H](O)C[C@@H]1[C@@]3(C)CC[C@H](O)C(C)(C)[C@@H]3CC[C@]12C` [CK, Ginsenoside compound K], the “inhibition at concentration of 50 μM” value at CYP2C9 (setting [2]) and against CYP2D6 (setting [2]) was “did not inhibit” each time. Also, the IC50 was above 50 µM against CYP2C9 (pooled human liver microsomes, substrate Diclofenac); 9.76 µM against CYP3A4 (substrate Midazolam); 13.9 µM against CYP3A4 (substrate Testosterone); above 50 µM at CYP2D6 (pooled human liver microsomes, substrate Dextromethorphan). Moreover, the “LPS-induced TNF-α expression” value with TNF-α is recorded as “significantly decreased”. Besides, the “LPS-stimulated VCAM-1 mRNA expression” value in the data set on VCAM-1 was “significantly inhibited”. Also, the cell viability entry in the data set with HUVECs is “did not influence cell viability”. Further, the “IC50 shift (fold difference)” value worked out at 0.98 fold on CYP3A4 (CYP3A4(M), midazolam as substrate) and 1.06 fold on CYP3A4 (CYP3A4(T), testosterone as substrate). Besides, the “amount of residual drug in the stent” value in [1] (after 90 days of drug release) is “beyond the detection/quantitation limit”. For the same compound, in [1] (within one month), the “drug released (initial burst)” value was around 80%. In the data set with Human platelets, the “platelet aggregation level after treating the platelet with CK” value is given as “decreased”. For the same compound, in the data set with IL-6, the “LPS-induced IL-6 expression” value is recorded as “significantly decreased”. The “LPS-stimulated ICAM-1 mRNA expression” value in the data set with ICAM-1 is “significantly inhibited”.
